Data taken from US20240342320A1, “POLYPEPTIDE TARGETING INTEGRIN ALPHA 6 AND USE THEREOF” (GUANGZHOU GENBIONOVA MEDICAL TECHNOLOGY CO., LTD., priority 2021, published 2024).
Like-named read-outs stand apart in the source and are kept apart here. Positions of bridges follow the written chain, without caps; N, C: chain ends. Non-standard residues stand in square brackets, D forms with d. Residues, ends and D or L forms follow the SMILES beside them. Primed or numbered codes have the meaning given here. No end group written: not given here. FITC′ = not defined here; PEG4′ = not defined here

How the values were obtained:
integrin α6β4 [1] = molecular target: T1, integrin α6β4 (Homo sapiens, UniProt P16144+P23229); test: Microscale thermophoresis (MST) affinity to integrin α6β4; assay type: binding; settings: MST
T1 sequence (P23229 24-1050 limits assumed): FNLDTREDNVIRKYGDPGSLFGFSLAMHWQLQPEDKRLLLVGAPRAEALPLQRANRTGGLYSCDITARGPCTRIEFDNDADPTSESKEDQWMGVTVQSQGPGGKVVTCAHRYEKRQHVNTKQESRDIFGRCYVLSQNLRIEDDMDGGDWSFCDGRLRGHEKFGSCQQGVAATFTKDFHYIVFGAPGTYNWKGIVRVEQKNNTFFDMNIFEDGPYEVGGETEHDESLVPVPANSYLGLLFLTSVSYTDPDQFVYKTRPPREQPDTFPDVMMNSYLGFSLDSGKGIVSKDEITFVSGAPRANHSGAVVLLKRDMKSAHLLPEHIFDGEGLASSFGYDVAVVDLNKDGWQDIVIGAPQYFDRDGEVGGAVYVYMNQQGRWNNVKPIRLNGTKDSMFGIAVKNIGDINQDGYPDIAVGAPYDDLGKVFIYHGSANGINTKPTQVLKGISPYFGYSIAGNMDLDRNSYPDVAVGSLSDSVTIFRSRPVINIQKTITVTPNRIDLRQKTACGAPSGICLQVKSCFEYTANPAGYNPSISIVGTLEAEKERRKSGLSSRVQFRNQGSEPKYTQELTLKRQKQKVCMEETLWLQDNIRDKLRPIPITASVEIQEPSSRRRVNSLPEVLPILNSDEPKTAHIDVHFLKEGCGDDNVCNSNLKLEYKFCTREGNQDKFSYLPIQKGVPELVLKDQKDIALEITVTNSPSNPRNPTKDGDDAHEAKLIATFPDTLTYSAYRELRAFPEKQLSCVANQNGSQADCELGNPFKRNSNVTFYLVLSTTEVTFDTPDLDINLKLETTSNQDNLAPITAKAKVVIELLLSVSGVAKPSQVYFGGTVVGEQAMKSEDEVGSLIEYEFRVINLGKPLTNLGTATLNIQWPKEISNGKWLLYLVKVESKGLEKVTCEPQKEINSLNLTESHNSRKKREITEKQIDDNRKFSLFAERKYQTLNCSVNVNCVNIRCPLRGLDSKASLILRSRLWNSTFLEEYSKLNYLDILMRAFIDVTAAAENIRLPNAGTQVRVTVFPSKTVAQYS
T1 sequence (P16144 28-710 partner limits assumed): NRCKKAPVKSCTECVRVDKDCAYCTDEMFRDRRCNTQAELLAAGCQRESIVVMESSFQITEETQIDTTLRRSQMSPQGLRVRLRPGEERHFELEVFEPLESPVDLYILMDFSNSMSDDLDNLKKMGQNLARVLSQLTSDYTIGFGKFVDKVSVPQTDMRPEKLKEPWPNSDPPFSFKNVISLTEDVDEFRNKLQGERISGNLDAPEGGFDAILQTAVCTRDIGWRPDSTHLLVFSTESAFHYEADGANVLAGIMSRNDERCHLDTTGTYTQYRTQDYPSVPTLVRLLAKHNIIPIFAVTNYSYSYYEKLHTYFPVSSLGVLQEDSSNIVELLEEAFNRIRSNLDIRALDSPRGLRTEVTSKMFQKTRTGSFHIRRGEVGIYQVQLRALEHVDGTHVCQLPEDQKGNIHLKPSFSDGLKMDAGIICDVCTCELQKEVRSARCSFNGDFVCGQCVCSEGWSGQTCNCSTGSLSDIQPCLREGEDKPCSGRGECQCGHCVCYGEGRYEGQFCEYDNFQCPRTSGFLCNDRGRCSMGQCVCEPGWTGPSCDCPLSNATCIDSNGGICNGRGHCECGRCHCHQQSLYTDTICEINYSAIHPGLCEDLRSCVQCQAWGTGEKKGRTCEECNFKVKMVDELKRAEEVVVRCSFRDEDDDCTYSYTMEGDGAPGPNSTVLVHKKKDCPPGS
Method: (§1) The affinity between these 18 polypeptides and integrin α6β4 was detected by microscale thermophoresis (MST) method as follows: • 1) Integrin α6β4 protein was dissolved to 800 nM, and polypeptide was dissolved to 100 μM. • 2) A RED-tris-NTA second-generation dye was diluted to 100 nM by using the MO series RED-tris-NTA protein labeling kit. • 3) 100 μl α6β4 protein was mixed with 50 μl dye and incubated at room temperature for 30 min, so that the α6β4 protein binds to the dye. • 4) 10 μl polypeptide was transferred into a PCR tube, and was diluted with PBST (containing 0.05% Tween 20) at a ratio of 1:1 to 16 gradients of concentrations. • 5) 3 μl protein/dye mixture was transferred into a PCR tube, 3 μl of 16 different concentrations of polypeptides was respectively added and mixed well. • 6) The mixture was absorbed by capillary and loaded on machine (instrument model Monolith NT.115) to assay, parameters were set as 80% LED/excitation power and medium MST power. • 7) MO. Affinity Analysis software was used to calculate the equilibrium dissociation constant KD between α6β4 protein and polypeptide by KD fitting mode.

integrin α6β4 [2] = molecular target: T2, integrin α6β4 (Homo sapiens, UniProt P23229); test: as above; assay type: binding; settings: for Affinity relative to RWY: relative to CRWYDENAC (RWY) = 1.00
T2 sequence (P23229 24-1050 limits assumed): T1 sequence (P23229 24-1050 limits assumed)
T2 sequence (P16144 28-710 partner limits assumed): T1 sequence (P16144 28-710 partner limits assumed)
Method: as §1

integrin α6β1 = integrin α6β1 (Homo sapiens, UniProt P05556+P23229); test: MST affinity to integrin α6β1; assay type: binding
[3] = tested on: tumor cells with high integrin α6 expression; test: Flow cytometry affinity assay to tumor cells with high integrin α6 expression; assay type: cell-based, human
Method: (§2) The expression of integrin α6 and β4 in human hepatoma cells HCCLM3, human hepatoma cells Huh-7, human hepatoma cells Hep3B, human nasopharyngeal carcinoma cells S18 and human breast cancer cells MDA-MB-231 were detected by flow cytometry. […] Integrin β4 is expressed in HCCLM3, S18 and MDA-MB-231 cells (FIG. 3F, FIG. 3G, FIG. 3I, FIG. 3J). […] Each cell had 3 duplicate wells. • 2) 2 μl of 1 mM RWYD-PEG4-K-FITC (structural formula shown in FIG. 1B, referred to as RD) or CRWYDENAC-PEG4-K-FITC (referred to as RWY) was added into cells, mixed well, and incubate in an incubator at 37° C. for 2 hours. • 3) The culture medium containing polypeptides was absorbed and removed, the cells were washed with PBS for 3 times, 500 μl/time. • 4) The cells were digested with trypsin, resuspended with medium and centrifuged at 300 g for 5 minutes. • 5) The supernatant was discarded and cell precipitation was preserved, and the cells were resuspended with 500 μl saline and placed into the flow tube. • 6) The FITC channel was detected by flow machine and the results were analyzed by CytExpert.
(§3) RWYD-PEG4 forms dimers or polyploids via lysine (K) ligations. Flow cytometry was used to detect expression of integrin α6 in tumor cells. […] The specific operation of affinity assay of tumor cells to RD2 is similar to that of “affinity assay of tumor cells to RD”.

[4] = tested on: tumor cells with high integrin α6 expression (HCCLM3, Huh-7, S18, MDA-MB-231; also HT29, KYSE30, SW620, SW1990 for RD2); test: Affinity of RD/RD2 to tumor cells with high integrin α6 expression by flow cytometry; assay type: cell-based, human; settings: FITC probes, 37° C., 2 hours
Method: as §2, §3

integrin α6β4 [5] = molecular target: T3, integrin α6β4 (Homo sapiens, UniProt P23229); test: Affinity between polypeptide mutants and integrin α6β4 by microscale thermophoresis (MST); assay type: binding
T3 sequence (P23229 24-938 limits assumed): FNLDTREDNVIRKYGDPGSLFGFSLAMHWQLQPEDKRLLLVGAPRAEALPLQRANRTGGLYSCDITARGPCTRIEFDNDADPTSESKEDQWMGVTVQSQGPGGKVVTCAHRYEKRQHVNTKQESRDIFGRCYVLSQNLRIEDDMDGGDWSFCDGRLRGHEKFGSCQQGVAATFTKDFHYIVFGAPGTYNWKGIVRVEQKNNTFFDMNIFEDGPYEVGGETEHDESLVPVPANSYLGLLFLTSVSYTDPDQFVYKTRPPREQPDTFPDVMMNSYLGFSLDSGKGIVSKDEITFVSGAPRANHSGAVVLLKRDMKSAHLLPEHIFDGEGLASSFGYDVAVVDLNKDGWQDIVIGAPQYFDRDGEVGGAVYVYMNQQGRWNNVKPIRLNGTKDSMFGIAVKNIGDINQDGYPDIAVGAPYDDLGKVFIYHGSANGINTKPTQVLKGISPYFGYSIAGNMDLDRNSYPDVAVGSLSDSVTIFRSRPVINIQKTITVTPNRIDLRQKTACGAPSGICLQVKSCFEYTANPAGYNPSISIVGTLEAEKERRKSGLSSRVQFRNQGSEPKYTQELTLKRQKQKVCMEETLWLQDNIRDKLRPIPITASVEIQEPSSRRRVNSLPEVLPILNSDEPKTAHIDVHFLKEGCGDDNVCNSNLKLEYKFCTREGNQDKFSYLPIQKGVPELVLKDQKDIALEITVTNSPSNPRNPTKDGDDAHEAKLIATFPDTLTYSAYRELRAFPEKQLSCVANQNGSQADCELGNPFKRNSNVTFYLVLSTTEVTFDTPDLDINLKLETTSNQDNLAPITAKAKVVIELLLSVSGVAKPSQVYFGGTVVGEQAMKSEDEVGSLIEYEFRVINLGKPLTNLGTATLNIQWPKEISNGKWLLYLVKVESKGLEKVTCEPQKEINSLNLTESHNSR
T3 sequence (P23229 942-1050 limits assumed): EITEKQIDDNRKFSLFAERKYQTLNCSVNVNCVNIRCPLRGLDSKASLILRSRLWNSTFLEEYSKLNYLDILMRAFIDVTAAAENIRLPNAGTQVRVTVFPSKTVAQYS
T3 sequence (P16144 28-710 partner limits assumed): T1 sequence (P16144 28-710 partner limits assumed)
Method: as §1

Hep3B cells [6] = test: Flow cytometry affinity assay to Hep3B cells that do not express integrin α6; assay type: cell-based, human; settings: FITC flow cytometry; Hep3B does not express integrin α6
Method: as §2, §3

Hep3B cells [7] = test: Affinity of RD/RD2 to Hep3B cells (no integrin α6 expression) by flow cytometry; assay type: cell-based, human; settings: FITC probes, 37° C., 2 hours
Method: as §2, §3

[8] = integrin α6β4, determination 1, read-out: KD (um) 1
[9] = integrin α6β4, determination 2, read-out: KD (um) 2
[10] = integrin α6β4, determination 3, read-out: KD (um) 3
[11] = integrin α6β4, mean of 3, read-out: KD Mean value (μm)

integrin α6β1, sequence (P05556 21-728 partner limits assumed, one chain of several): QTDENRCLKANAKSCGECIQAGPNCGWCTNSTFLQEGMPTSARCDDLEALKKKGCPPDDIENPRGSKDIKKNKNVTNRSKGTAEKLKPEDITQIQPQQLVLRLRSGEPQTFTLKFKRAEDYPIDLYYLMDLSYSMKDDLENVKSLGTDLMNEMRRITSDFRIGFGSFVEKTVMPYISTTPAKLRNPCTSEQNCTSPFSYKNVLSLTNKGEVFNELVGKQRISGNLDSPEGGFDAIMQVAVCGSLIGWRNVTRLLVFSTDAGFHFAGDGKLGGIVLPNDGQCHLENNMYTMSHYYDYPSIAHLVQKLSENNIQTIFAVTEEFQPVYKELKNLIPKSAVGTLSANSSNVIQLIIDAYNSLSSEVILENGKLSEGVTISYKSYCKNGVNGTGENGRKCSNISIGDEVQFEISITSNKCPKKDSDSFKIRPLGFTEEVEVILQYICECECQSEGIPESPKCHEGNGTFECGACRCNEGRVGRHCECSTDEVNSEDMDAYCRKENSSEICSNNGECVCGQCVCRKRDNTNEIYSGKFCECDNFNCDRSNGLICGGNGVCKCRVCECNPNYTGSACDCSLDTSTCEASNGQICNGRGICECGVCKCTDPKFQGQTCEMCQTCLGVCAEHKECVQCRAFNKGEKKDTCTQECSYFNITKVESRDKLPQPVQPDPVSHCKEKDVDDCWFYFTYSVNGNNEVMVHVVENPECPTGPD

C[C@H](NC(=O)[C@H](CC(=O)O)NC(=O)[C@H](Cc1ccc(O)cc1)NC(=O)[C@H](Cc1c[nH]c2ccccc12)NC(=O)[C@@H](N)CCCNC(=N)N)C(=O)O [P14, RWYDA] (H-RWYDA-OH; N-terminus and C-terminus assumed)
Kd (integrin α6β4 [1]; [8]): 6.28 µM
Kd (integrin α6β4 [1]; [9]): 4.69 µM
Kd (integrin α6β4 [1]; [10]): 4.22 µM
Kd (integrin α6β4 [1]; [11]): 5.06 µM
Affinity relative to RWY (integrin α6β4 [2]): 1.38

N=C(N)NCCC[C@H](N)C(=O)N[C@@H](Cc1c[nH]c2ccccc12)C(=O)N[C@@H](Cc1ccc(O)cc1)C(=O)N[C@@H](CC(=O)O)C(=O)O [P15, RWYD] (H-RWYD-OH; N-terminus and C-terminus assumed)
Kd (integrin α6β1): 0.0531 ± 0.0287 µM
Kd (integrin α6β4 [1]; [8]): 0.02 µM
Kd (integrin α6β4 [1]; [10]): 0.026 µM
Kd (integrin α6β4 [1]; [11]): 0.02 µM
Kd (integrin α6β4 [1]; integrin α6β4, read-out: KD): 0.0218 ± 0.00386 µM
Affinity increase relative to CRWYDENAC (integrin α6β4 [2]; integrin α6β4): 327 times
Affinity relative to RWY (integrin α6β4 [2]): 326.875

C[C@H](NC(=O)[C@H](Cc1ccc(O)cc1)NC(=O)[C@H](Cc1c[nH]c2ccccc12)NC(=O)[C@@H](N)CCCNC(=N)N)C(=O)N[C@@H](CCC(=O)O)C(=O)N[C@@H](CC(N)=O)C(=O)O [P16, RWYAEN] (H-RWYAEN-OH; N-terminus and C-terminus assumed)
Kd (integrin α6β4 [1]; [8]): 7.31 µM
Kd (integrin α6β4 [1]; [9]): 6.08 µM
Kd (integrin α6β4 [1]; [10]): 9.74 µM
Kd (integrin α6β4 [1]; [11]): 7.71 µM
Affinity relative to RWY (integrin α6β4 [2]): 0.90

(RWYD-PEG4)2-K-K-FITC (not fully specified) [FITC-labeled RWYD dimer]
Affinity to tumor cells with high integrin α6 expression compared with RWYD-PEG4-K-FITC ([3]; HCCLM3, S18, HT29, Huh7, MDA-MB-231, KYSE30, SW620, SW1990): stronger affinity

(RWYD-PEG4)2-K-K-FITC (not fully specified) [RD2]
affinity to tumor cells [4]: stronger affinity to tumor cells with high integrin α6 expression

(RWYD-PEG4)2-K-K-NOTA (not fully specified)
Kd (integrin α6β4 [5]): 0.0648 ± 0.0282 µM
affinity increase of RWYD-PEG4 dimer over RWYD-PEG4-K-NOTA (integrin α6β4 [5]; NOTA conjugates): about 10 times

CRWYDENAC-PEG4-K-FITC (CRWYDENAC[PEG4′]K-{FITC′}; disulfide 1-9 (inferred)) [reference compound] [listing 1 of 2 here]
Affinity to Hep3B cells, RD versus RWY (Hep3B cells [6]): consistent

CRWYDENAC-PEG4-K-FITC (CRWYDENAC[PEG4′]K-{FITC′}; disulfide 1-9 (inferred)) [reference compound] [listing 2 of 2 here]
affinity to Hep3B cells (Hep3B cells [7]): consistent with Hep3B cells

RWYD-PEG4-K-FITC [RD] [listing 1 of 2 here]
Affinity to tumor cells with high integrin α6 expression compared with RWY ([3]; FITC flow cytometry, HCCLM3, Huh7, S18, MDA-MB-231, 37° C., 2 hours): stronger affinity
Affinity to Hep3B cells, RD versus RWY (Hep3B cells [6]): consistent

RWYD-PEG4-K-FITC [RD] [listing 2 of 2 here]
affinity to Hep3B cells (Hep3B cells [7]): consistent with Hep3B cells
affinity to tumor cells [4]: stronger affinity to tumor cells with high integrin α6 expression than RWY
